In ChEMBL document CHEMBL5518230, “Identification of a Novel Selective CDK9 Inhibitor for the Treatment of CRC: Design, Synthesis, and Biological Activity Evaluation” (J Med Chem, 2024):
The source made the active and inactive calls. The calls are words filed in the database; no cut-off is given here.

Columns and labels:
[1] = system: HCT-116; assay: Growth inhibition of human HCT-116 cells incubated for 48 hrs by CCK-8 assay; format: functional
[2] = system: HT-29; assay: Growth inhibition of human HT-29 cells incubated for 48 hrs by CCK-8 assay; format: functional
[3] = target: Cyclin-dependent kinase 5 (Homo sapiens, UniProt Q00535); assay: Inhibition of CDK5 (unknown origin)
Chain of Cyclin-dependent kinase 5 (Q00535 whole entry): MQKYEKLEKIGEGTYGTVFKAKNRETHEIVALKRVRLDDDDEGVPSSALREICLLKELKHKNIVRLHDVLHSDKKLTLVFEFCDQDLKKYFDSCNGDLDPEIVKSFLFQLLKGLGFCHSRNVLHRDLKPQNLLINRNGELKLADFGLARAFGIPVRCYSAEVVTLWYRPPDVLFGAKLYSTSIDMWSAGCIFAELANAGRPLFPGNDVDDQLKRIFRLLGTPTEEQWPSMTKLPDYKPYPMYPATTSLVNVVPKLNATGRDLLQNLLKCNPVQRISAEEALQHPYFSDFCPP

[4] = target: Cyclin-dependent kinase 6 (Homo sapiens, UniProt Q00534); assay: Inhibition of CDK6 (unknown origin)
[5] = target: Cyclin-dependent kinase 8 (Homo sapiens, UniProt P49336); assay: Inhibition of CDK8 (unknown origin)
Chain of Cyclin-dependent kinase 8 (P49336 whole entry): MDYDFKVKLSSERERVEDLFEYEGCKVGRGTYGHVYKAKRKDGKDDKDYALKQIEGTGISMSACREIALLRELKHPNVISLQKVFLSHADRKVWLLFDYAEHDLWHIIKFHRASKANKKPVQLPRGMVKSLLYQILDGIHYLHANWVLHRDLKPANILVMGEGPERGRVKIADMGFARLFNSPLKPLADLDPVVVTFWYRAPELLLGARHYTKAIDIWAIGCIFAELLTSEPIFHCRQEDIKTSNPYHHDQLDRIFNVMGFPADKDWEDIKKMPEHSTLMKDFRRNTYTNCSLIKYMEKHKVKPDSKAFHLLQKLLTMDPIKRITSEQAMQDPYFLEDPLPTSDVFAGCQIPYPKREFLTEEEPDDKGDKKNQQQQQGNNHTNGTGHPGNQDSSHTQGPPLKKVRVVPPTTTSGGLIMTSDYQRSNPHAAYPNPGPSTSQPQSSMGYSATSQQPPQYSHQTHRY

[6] = target: Cyclin-dependent kinase 12 (Homo sapiens, UniProt Q9NYV4); assay: Inhibition of CDK12 (unknown origin)
Chain of Cyclin-dependent kinase 12 (Q9NYV4 whole entry): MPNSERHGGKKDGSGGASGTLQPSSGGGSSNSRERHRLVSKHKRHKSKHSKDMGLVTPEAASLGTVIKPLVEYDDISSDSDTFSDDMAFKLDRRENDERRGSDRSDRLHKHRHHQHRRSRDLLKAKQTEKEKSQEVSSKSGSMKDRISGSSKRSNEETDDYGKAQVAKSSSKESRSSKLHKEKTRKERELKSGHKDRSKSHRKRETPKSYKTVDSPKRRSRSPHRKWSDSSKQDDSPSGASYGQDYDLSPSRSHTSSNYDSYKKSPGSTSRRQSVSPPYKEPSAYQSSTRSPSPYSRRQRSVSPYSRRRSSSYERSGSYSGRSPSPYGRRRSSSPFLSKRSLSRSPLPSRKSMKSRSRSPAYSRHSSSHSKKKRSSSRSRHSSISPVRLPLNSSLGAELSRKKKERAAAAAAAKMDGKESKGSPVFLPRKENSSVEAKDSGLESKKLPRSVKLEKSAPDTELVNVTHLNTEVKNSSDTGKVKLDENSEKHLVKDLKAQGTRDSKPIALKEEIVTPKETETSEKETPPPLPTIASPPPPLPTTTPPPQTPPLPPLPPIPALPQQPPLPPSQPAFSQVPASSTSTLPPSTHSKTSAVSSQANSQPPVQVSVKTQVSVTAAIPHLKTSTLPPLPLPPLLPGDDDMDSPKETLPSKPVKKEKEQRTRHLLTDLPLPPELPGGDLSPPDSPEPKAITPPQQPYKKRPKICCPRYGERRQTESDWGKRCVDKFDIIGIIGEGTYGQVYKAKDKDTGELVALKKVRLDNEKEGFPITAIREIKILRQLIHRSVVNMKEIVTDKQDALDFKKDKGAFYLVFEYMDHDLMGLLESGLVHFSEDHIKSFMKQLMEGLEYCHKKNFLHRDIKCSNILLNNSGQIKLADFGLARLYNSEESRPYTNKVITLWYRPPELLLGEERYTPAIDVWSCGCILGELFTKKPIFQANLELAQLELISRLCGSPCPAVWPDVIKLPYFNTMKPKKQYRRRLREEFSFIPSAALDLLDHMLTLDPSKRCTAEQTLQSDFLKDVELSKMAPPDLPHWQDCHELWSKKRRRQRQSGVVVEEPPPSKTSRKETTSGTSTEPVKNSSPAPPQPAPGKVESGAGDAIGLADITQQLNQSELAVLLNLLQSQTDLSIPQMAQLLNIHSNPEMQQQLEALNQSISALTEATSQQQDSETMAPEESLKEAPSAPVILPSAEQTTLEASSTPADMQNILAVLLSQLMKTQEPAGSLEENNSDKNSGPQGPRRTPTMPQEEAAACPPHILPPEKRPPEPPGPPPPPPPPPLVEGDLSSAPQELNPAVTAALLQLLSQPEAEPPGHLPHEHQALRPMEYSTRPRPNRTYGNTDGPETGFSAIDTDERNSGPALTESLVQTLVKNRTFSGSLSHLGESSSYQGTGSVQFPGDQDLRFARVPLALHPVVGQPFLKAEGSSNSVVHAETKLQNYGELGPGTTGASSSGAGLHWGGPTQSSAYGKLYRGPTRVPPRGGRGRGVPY

[7] = Intrinsic clearance in human liver microsomes at 100 uM measured upto 60 mins in presence of NADPH by LC-MS/MS analysis; format: ADME, Microsome; conditions: 1 h
[8] = Half life in human plasma measured upto 120 mins by LC-MS/MS analysis; format: ADME, cell-free
[9] = target: T1, CYP1A2 (Homo sapiens, UniProt P05177); assay: Inhibition of CYP1A2 in human liver microsomes using alpha-naphthoflavone as […] at 10 uM preincubated for 10 mins followed by NADPH addition measured after 15 mins by LC-MS/MS analysis relative to control; format: ADME, Microsome; conditions: time 25 min
T1 sequence (P05177 whole entry): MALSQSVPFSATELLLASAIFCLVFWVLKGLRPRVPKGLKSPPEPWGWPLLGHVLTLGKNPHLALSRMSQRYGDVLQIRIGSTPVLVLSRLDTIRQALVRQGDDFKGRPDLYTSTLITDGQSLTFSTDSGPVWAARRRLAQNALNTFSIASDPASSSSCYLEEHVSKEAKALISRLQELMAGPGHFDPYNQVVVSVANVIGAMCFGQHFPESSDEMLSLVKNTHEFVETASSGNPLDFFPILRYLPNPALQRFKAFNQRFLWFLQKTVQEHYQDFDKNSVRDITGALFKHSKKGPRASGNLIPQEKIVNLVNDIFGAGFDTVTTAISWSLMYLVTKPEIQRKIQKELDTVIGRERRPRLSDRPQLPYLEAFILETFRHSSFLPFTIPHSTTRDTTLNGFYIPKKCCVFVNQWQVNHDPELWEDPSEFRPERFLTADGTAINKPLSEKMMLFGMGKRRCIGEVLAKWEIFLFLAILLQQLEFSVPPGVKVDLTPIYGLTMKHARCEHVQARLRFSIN

[10] = target: CYP2C19 (Homo sapiens, UniProt P33261); assay: Inhibition of CYP2C19 in human liver microsomes using benzylnirvanol as […] at 10 uM preincubated for 10 mins followed by NADPH addition measured after 15 mins by LC-MS/MS analysis relative to control; format: ADME, Microsome; conditions: probe benzylnirvanol, time 25 min
[11] = target: CYP3A4 (Homo sapiens, UniProt P08684); assay: Inhibition of CYP3A4 in human liver microsomes using ketoconazole as […] at 10 uM preincubated for 10 mins followed by NADPH addition measured after 15 mins by LC-MS/MS analysis relative to control; format: ADME, Microsome; conditions: probe ketoconazole, time 25 min
[12] = Growth inhibition of human CCC-HIE-2 cells incubated for 48 hrs by CCK-8 assay; format: toxicity, cell-based
[13] = Selectivity index, ratio of GI50 for growth inhibition of human SW480 cells to GI50 for growth inhibition of human HCT-116 cells; format: functional
[14] = Half life in Sprague-Dawley rat at 2 mg/kg,iv administration measured for 0.25 to 24 hrs by LC-MS/MS analysis; format: ADME, organism-based; conditions: in vivo, time 0.25-24 hrs
[15] = Tmax in Sprague-Dawley rat at 10 mg/kg,po administration measured for 0.25 to 24 hrs by LC-MS/MS analysis; format: ADME, organism-based; conditions: in vivo, time 0.25-24 hrs
[16] = target: Serine/threonine-protein kinase Nek1 (Homo sapiens) (UniProt Q96PY6); assay: Inhibition of human NEK1 at 100 nM by kinase profiling assay relative to control
[17] = target: Interleukin-1 receptor-associated kinase 1 (Homo sapiens) (UniProt P51617); assay: Inhibition of human IRAK1 at 100 nM by kinase profiling assay relative to control
Chain of Interleukin-1 receptor-associated kinase 1 (Homo sapiens) (P51617 whole entry, looked up): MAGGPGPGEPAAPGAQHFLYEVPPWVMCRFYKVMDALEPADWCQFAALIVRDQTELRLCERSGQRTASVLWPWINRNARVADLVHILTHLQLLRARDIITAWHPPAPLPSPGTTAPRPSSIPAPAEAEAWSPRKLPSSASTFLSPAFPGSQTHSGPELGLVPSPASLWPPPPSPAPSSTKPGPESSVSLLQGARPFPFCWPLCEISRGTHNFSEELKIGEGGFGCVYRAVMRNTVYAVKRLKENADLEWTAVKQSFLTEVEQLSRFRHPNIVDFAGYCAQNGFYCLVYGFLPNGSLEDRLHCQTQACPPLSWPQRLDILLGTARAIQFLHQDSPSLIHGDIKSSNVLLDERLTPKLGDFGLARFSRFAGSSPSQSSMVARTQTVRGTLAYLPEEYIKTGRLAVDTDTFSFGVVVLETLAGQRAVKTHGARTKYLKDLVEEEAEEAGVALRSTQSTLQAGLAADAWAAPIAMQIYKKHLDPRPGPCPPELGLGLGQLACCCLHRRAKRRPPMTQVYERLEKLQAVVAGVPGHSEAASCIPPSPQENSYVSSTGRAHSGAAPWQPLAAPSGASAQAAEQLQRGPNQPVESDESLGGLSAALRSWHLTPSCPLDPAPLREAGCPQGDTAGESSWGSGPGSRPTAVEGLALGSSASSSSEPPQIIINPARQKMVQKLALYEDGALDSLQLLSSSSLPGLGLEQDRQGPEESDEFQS

[18] = target: Serine/threonine-protein kinase SIK2 (Homo sapiens) (UniProt Q9H0K1); assay: Inhibition of human QIK at 100 nM by kinase profiling assay relative to control
Chain of Serine/threonine-protein kinase SIK2 (Homo sapiens) (Q9H0K1 whole entry, looked up): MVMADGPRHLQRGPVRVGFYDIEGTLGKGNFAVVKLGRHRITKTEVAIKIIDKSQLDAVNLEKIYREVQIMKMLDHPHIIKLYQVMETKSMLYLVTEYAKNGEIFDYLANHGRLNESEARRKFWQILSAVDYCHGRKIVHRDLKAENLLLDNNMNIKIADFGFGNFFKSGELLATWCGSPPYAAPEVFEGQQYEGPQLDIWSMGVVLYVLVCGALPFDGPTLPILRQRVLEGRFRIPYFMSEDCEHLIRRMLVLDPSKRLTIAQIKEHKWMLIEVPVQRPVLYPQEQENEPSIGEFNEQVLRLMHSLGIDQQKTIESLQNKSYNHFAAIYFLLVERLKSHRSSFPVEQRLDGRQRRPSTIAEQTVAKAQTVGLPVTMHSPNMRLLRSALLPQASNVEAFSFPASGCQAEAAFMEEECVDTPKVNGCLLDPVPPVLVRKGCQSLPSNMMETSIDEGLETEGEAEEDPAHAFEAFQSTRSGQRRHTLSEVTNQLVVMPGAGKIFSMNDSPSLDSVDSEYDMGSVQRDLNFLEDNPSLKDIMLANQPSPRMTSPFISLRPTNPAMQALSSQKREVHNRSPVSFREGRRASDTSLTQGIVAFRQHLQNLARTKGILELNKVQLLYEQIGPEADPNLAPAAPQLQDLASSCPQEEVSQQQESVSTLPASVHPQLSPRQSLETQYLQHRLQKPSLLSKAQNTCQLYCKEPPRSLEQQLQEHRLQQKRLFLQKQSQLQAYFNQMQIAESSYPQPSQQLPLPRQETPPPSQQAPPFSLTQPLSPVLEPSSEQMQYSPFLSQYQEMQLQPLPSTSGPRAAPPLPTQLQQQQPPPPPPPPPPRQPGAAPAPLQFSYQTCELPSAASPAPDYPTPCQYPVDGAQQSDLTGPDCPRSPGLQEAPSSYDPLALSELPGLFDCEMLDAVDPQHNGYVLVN

[19] = target: Aurora kinase B (Homo sapiens) (UniProt Q96GD4); assay: Inhibition of human AurB at 100 nM by kinase profiling assay relative to control
[20] = target: Homeodomain-interacting protein kinase 1 (Homo sapiens) (UniProt Q86Z02); assay: Inhibition of human HIPK1 at 100 nM by kinase profiling assay relative to control
Chain of Homeodomain-interacting protein kinase 1 (Homo sapiens) (Q86Z02 whole entry, looked up): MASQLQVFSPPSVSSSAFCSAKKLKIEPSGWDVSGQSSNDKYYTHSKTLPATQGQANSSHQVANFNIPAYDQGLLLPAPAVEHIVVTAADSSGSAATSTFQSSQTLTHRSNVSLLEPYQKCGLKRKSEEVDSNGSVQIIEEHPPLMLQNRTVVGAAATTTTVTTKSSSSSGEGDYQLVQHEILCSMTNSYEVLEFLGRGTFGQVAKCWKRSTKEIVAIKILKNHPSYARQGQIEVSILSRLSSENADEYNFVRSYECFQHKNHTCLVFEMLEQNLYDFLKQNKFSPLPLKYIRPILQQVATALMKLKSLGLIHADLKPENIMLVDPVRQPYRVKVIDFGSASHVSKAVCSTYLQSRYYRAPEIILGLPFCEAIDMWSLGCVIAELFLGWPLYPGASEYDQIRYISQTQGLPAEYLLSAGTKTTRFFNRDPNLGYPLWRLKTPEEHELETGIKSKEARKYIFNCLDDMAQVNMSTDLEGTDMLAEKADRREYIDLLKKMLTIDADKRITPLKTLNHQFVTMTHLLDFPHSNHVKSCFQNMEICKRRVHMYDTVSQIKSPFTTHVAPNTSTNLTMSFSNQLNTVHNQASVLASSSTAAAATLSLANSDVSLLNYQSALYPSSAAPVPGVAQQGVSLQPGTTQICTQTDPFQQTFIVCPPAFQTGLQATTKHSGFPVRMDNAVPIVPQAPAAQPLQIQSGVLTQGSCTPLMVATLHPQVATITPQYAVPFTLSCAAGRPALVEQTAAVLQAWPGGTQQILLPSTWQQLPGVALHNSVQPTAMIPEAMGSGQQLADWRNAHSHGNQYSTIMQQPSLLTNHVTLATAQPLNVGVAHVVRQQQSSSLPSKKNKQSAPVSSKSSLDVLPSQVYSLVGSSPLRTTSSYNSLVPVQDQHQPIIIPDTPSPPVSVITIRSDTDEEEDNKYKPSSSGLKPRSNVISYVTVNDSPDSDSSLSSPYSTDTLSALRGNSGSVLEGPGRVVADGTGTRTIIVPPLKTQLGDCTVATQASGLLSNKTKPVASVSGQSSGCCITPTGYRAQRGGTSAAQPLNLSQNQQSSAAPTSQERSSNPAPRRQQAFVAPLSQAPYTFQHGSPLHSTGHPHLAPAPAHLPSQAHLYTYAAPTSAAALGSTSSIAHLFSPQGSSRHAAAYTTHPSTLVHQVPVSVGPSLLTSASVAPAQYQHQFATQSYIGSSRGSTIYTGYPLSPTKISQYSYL

[21] = target: Mitogen-activated protein kinase kinase kinase kinase 4 (Homo sapiens) (UniProt O95819); assay: Inhibition of human HGK at 100 nM by kinase profiling assay relative to control
[22] = system: HCT-116; assay: Induction of apoptosis in human HCT-116 cells assessed as increase in early apoptotic cells incubated for 48 hrs by Annexin V-FITC/PI staining based flow cytometric analysis; format: functional, cell-based
[23] = system: HCT-116; assay: Induction of apoptosis in human HCT-116 cells assessed as increase in red fluorescence emission by TUNEL staining fluorescence microscopic analysis; format: functional, cell-based
[24] = system: HCT-116; assay: Induction of apoptosis in human HCT-116 cells assessed as downregulation of XIAP mRNA expression at 25 to 400 nM incubated for 48 hrs by qRT-PCR analysis; format: functional, cell-based; conditions: dose 25-400 nM
[25] = system: HCT-116; assay: Induction of apoptosis in human HCT-116 cells assessed as downregulation of c-Myc mRNA expression at 25 to 400 nM incubated for 48 hrs by qRT-PCR analysis; format: functional, cell-based; conditions: dose 25-400 nM
[26] = system: HCT-116; assay: Induction of apoptosis in human HCT-116 cells assessed as downregulation of PARP expression at 25 to 400 nM incubated for 48 hrs by Western blotting analysis; format: functional, cell-based; conditions: dose 25-400 nM
[27] = system: HCT-116; assay: Antitumor activity against human HCT-116 cells xenografted in BALB/c mouse assessed as tumor growth inhibition at po administrated once daily for 3 weeks; format: functional, organism-based
[28] = Toxicity in BALB/c mouse xenografted with human HCT-116 cells assessed as body weight loss at 25 mg/kg,po administrated once daily for 3 weeks; format: organism-based; conditions: in vivo, 504 h
[29] = system: HCT-116; assay: Antitumor activity against human HCT-116 cells xenografted in BALB/c mouse assessed as downregulation of RNA polymerase II phosphorylation at 50 mg/kg,po administrated once daily for 3 weeks by Western blotting analysis; format: functional, organism-based
[30] = Toxicity in BALB/c mouse xenografted with human HCT-116 cells assessed as liver morphological change at 25 mg/kg,po administrated once daily for 3 weeks by hematoxylin and eosin staining based microscopic analysis; format: organism-based; conditions: in vivo, 504 h
[31] = Toxicity in BALB/c mouse xenografted with human HCT-116 cells assessed as spleen morphological change at 25 mg/kg,po administrated once daily for 3 weeks by hematoxylin and eosin staining based microscopic analysis; format: organism-based; conditions: in vivo, 504 h
[32] = Toxicity in BALB/c mouse xenografted with human HCT-116 cells assessed as spleen morphological change at 50 mg/kg,po administrated once daily for 3 weeks by hematoxylin and eosin staining based microscopic analysis; format: organism-based; conditions: in vivo, 504 h

GI50 [1]: 50 nM | GI50 [2]: 560 nM | IC50 [3]: > 500 nM | IC50 [4]: 209 nM | IC50 [5]: > 500 nM | IC50 [6]: > 500 nM | CLH [7]: 49.6 µL/min/mg | half-life [8]: > 4.82 h | inhibition at 0.25 h, 10 µM [9]: 34.6% | inhibition at 0.25 h, 10 µM [10]: 24.5% | inhibition at 0.25 h, 10 µM [11]: 0% | half-life [14]: 1.7 h | Tmax [15]: 0.5 h | inhibition [16]: < 50% | inhibition [17]: < 50% | inhibition [18]: < 50% | inhibition [19]: < 50% | inhibition [20]: < 50% | inhibition [21]: < 50%
SMILES: CC(C)n1nnc2ccc(-c3ccnc(Nc4cc(C(=O)N5CCCN(C)CC5)ccn4)c3)cc21
GI50 at 48 h [12]: 9510 nM | RatioGI50 [13]: 92.97 | Activity [22]: Dose-Dependent Effect | Activity [23]: Dose-Dependent Effect | Activity [24]: Active | Activity [25]: Active | Activity [26]: Active | Activity [27]: Dose-Dependent Effect | Activity [28]: Non-Toxic | Activity [29]: Active | Activity [30]: Non-Toxic | Activity [31]: Non-Toxic | Activity [32]: Non-Toxic
